Data set [1] deals with MDA-MB-435 breast cancer cell line. Put plainly: Cell growth inhibition, MDA-MB-435. It counts as cell-based, human. As for the experimental part: (§1) A direct comparison of (−)-gossypol, apogossypol and apogossypolone for their activity in inhibition of cell growth in PC-3 and LnCap prostate cancer cell lines was carried out.
(§2) Additional cell growth inhibition studies were performed using the MDA-MB-231 (subclone 2LMP), T47D, and MDA-MB-435 breast cancer cell lines. Racemic gossypol, apogossypol, apogossypolone, (+)-apogossypol, (−)-apogossypol, and tetra-acetyl apogossypolone (Formula VIII) were tested as described above.

The target in another data set is recombinant human Bcl-2 (Homo sapiens, UniProt P10415). Put plainly: Fluorescence polarization binding assay for Bcl-2 (Bid-FAM peptide displacement). In general terms: Polarisation of emitted light reports the rotation of a fluorescent probe.
Another data set relates to PC-3 xenografts. The experiment in a line: Antitumor activity in PC-3 xenograft model, alone or with X-ray irradiation. Particulars: for complete tumor regression: Day 57. Format: in vivo, nude mice. How it is done: An in vivo study of apogossypolone was carried out using a PC-3 xenograft model in nude mice to evaluate the antitumor activity of apogossypolone alone or in combination with X-ray irradiation. Nude mice with established PC-3 xenografts (150 mm^3 in size) were treated with (1) apogossypolone 200 mg/kg p.o. q.d. 5×4 weeks; (2) fractionated X-ray irradiation to the tumor only, with the animal body shielded, at a dose of 2 Gy q.d. 5×3 weeks, total 30 Gy; and (3) a combination of apogossypolone and radiation.

A short description of data set [2]: Storage stability of the sample. It counts as physicochemical. Particulars: stored at room temperature for several weeks without the protection of nitrogen.
Data set [3] deals with T1, human Mcl-1 protein (amino acids 171-327) (Homo sapiens, UniProt Q07820).
T1 construct: The fragment encoding amino acids 171-327 was cloned into the pHis-TEV vector; 8xHis (N); made in house; host or cells: E. coli BL21(DE3)
The experiment in a line: Fluorescence polarization binding assay for the Mcl-1 protein (Flu-Bid-21 probe).

The test system of data set [4] is T47D breast cancer cell line. The experiment in a line: Cell growth inhibition, T47D. Format: cell-based, human. As for the experimental part: as §1, §2
A short description of data set [5]: Maximal tolerated dose (MTD) in mice. To be noted: for MTD: mouse, in vivo. It counts as in vivo. How it is done:
To confirm this prediction, the maximal tolerated dose (MTD) of apogossypolone and (−)-gossypol was evaluated in mice using two different routes of administrations (oral and intravenous). For oral administration (oral gavage 5 days/week), the MTD of apogossypolone was above 240 mg/kg while the MTD for (−)-gossypol was about 50 mg/kg. For intravenous administration (every other day and 3 days/week), the MTD of apogossypolone was about 80 mg/kg while the MTD for (−)-gossypol was about 10 mg/kg. In both routes of administration, the MTD of apogossypolone was 8-times better than (−)-gossypol.

Another data set addresses T2, recombinant human Bcl-xL (Homo sapiens, UniProt Q07817).
T2 construct: fused to a His-tag without the C-terminus hydrophobic tail; His-tag
The experiment in a line: Fluorescence polarization binding assay for Bcl-xL (Bak-Flu peptide displacement). From the text:
Fluorescence polarization (FP)-based binding assays for Bcl-2 and Bcl-xL were developed and optimized using recombinant human Bcl-2 and Bcl-xL proteins, a Bid BH3 peptide labeled with 6-carboxyfluorescein succinimidyl ester (FAM) and Bak BH3 peptide labeled with 6-(fluorescein-5(6)-carboxamido) hexanoic acid (Flu). The FP-based binding assays measure the ability of an inhibitor to displace either Bid-FAM or Bak-Flu peptide from Bcl-2 or Bcl-xL protein, respectively. The dose-dependent binding experiments were carried out with serial dilutions of the tested compounds in DMSO. For the Bcl-2 binding assay, a 5 μl sample of the inhibitor and preincubated recombinant His-fused soluble Bcl-2 protein (120 nM) with Bid-FAM peptide (10 nM) in the assay buffer (100 mM potassium phosphate, pH 7.5; 100 μg/ml bovine gamma globulin; 0.02% sodium azide, purchased from Invitrogen, Life Technologies), were added in Dynex 96-well, black, round-bottom plates (Fisher Scientific), to produce a final volume of 125 μl. […] The polarization values were measured after 3-4 hr incubation, using an ULTRA READER (Tecan U.S. Inc., Research Triangle Park, N.C.). The Ki value was calculated using a modified Cheng-Prusoff equation based upon the Kd value for the Bid-FAM peptide to Bcl-2, the measured IC50 value, and the concentrations of the protein and Bid-FAM. […]

Data set [6] concerns MDA-MB-231 (subclone 2LMP) breast cancer cell line. The experiment in a line: Cell growth inhibition, MDA-MB-231 (subclone 2LMP). Format: cell-based, human. How it is done:
as §1, §2

The test system of data set [7] is LnCap prostate cancer cell line. The experiment in a line: Inhibition of cell growth, MTT assay, LnCap. Particulars: Homo sapiens, LNCaP, read-out: IC50, inhibition of cell growth. Format: cell-based. How it is done:
as §1
Background: Formazan colour is commonly taken as a measure of viable cells.

Data set [8] deals with PC-3 prostate cancer cell line. Put plainly: Inhibition of cell growth, MTT assay, PC-3. Format: cell-based, human. How it is done:
as §1

Molecules are shown by their SMILES.

Consider one compound from patent US20060178435A1, “Apogossypolone and the uses thereof” (The Regents of the University of Michigan, priority 2004, published 2006).

T1 sequence (Q07820 171-327): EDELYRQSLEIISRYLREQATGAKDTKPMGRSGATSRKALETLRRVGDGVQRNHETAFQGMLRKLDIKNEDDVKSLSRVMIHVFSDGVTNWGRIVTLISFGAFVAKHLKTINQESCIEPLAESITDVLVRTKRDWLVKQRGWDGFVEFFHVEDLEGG
T2 sequence (Q07817 1-209 limits assumed): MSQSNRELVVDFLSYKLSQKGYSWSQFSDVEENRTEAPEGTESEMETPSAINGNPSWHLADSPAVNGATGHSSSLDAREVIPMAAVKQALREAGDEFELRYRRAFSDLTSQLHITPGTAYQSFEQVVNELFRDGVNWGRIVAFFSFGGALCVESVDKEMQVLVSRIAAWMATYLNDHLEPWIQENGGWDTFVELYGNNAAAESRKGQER
recombinant human Bcl-2, sequence (P10415 92-205 limits assumed): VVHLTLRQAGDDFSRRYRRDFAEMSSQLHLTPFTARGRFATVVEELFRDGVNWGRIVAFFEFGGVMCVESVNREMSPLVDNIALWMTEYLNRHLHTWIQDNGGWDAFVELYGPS

Usually IC50 stands for the concentration needed to halve the response being measured. Usually Ki stands for a measure of affinity in units of concentration, obtained from inhibition or displacement. By MTD is commonly meant the largest dose that counted as tolerated. Read a high MTD as better tolerability. As for `CC1=C(C2=C(C)C(=O)c3c(cc(O)c(O)c3C(C)C)C2=O)C(=O)c2cc(O)c(O)c(C(C)C)c2C1=O` (racemic) [apogossypolone, 6,7,6′,7′-Tetrahydroxy-5,5′-diisopropyl-3,3′-dimethyl-[2,2′]binaphthalenyl-1,4,1′,4′-tetraone], the IC50 amounted to 4.82 µM in [1] (Homo sapiens, MDA-MB-435, read-out: IC50 (μM) MDA-MB-435); 9.26 µM in [4] (Homo sapiens, T47D, read-out: IC50 (μM) T47D); 1.27 µM in data set [6] (Homo sapiens, MDA-MB-231, read-out: IC50 (μM) MDA-MB-231); 1300 nM in [7]; 2200 nM in [8] (Homo sapiens, PC-3, read-out: IC50, inhibition of cell growth). Besides, the figures for the “fold more potent than gossypol” value in data set [1] (MDA-MB-435 cell line), in data set [4] (T47D cell line) and in [6] (MDA-MB-231 cell line) were “about 2 fold”, “about 2 fold” and “about 9 fold”, respectively. Besides, the results for the inhibition constant Ki (at recombinant human Bcl-2; in data set [3]; on recombinant human Bcl-xL) were 76 nM, 51 ± 20 nM and 1270 nM, respectively. In addition, the complete tumor regression entry was “seven out of ten” with PC-3 xenografts (apogossypolone 200 mg/kg p.o. plus X-ray radiation 2 Gy q.d. 5×3 weeks) and “zero out of ten” with PC-3 xenografts (apogossypolone alone, 200 mg/kg p.o.). In addition, the “effect on the tumors” value in the data set on PC-3 xenografts (apogossypolone alone, 200 mg/kg p.o. q.d. 5×4 weeks) was “limited effect”. For the same compound, the “enhancement of radiation-mediated tumor inhibition” value with PC-3 xenografts (combination with X-ray radiation, P<0.0001, two-way ANOVA, n=10) was “significantly enhanced”. Besides, in data set [2], the decomposition on storage entry was “no decomposition was detected”. Moreover, the “fold better binding affinity compared with (−)-gossypol” value in data set [3] (Mcl-1) came to 3.5 fold. Also, the “MTD relative to (−)-gossypol” value in data set [5] (both routes of administration) is recorded as 8 times. In addition, the MTD in [5] (intravenous, every other day and 3 days/week) is approximately 80 mg/kg; in [5] (oral gavage 5 days/week) it was more than 240 mg/kg. For the same compound, in data set [8] (PC-3 cell line, 3-5 independent experiments), the “potency relative to (−)-gossypol in inhibition of cell growth” value is 3-4 times.
